Source: patent US20250101028A1, “HETEROCYCLIC COMPOUNDS, COMPOSITIONS THEREOF, AND METHODS OF TREATMENT THEREWITH” (BeiGene, Ltd., priority 2022, published 2025)

Assays:
[1] = target: T1, GST-tagged GDP-loaded KRAS G12D (amin acids 1-188) (Homo sapiens, UniProt P01116, G12D); experiment: KRAS G12D probe displacement assay (TR-FRET); assay type: binding; details: displacement of biotinylated probe 2 from GDP-loaded KRAS G12D
T1 construct: GST-tagged GDP-loaded KRAS G12D (amin acids 1-188); made in house; host or cells: E. coli
T1 sequence (P01116 1-188 isoform P01116-2 G12D): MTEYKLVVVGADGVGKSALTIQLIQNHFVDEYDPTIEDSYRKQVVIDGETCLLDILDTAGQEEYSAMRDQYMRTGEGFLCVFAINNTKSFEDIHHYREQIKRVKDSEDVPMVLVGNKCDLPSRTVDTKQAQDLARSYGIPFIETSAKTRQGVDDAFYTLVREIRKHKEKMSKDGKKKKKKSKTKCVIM
Method: KRAS WT and KRAS G12D Probe Displacement Assay
This assay was used to identify compounds which bind to GDP-loaded KRAS protein and are able to displace a biotinylated probe occupying the KRAS binding site. GST-tagged GDP-loaded WT KRAS (amino acids 1-188) and GST-tagged GDP-loaded KRAS G12D (amin acids 1-188) were expressed in E. coli and purified in house. All protein and reaction solutions were prepared in assay buffer containing 50 mM HEPES pH7.5, 50 mM NaCl, 1 mM MgCl2, 1 mM TCEP, 0.01% BSA, and 0.008% Brij-35. Purified WT KRAS (3 nM final concentration) or KRAS G12D protein (0.5 nM final concentration) was incubated with a 3-fold serially diluted compound in the assay plate (384 well microplate, black, Corning). Plates are incubated at 24° C. for 1 hr. Following the incubation, biotinylated probe 1 (60 nM final assay concentration) for WT KRAS and biotinylated probe 2 (4 nM final assay concentration) for KRAS G12D was added to the assay plate, respectively. After 1 hr incubation at 24° C., Mab Anti-GST-Tb cryptate (Cisbio) and Streptavidin-XL665 (Cisbio) were added and further incubated at 24° C. for another 1 hr. The TR-FRET signals (ex337 nm, em665 nm/620 nm) were read on BMG PHERAstar FSX instrument. The inhibition percentage of KRAS protein binding with biotinylated probe in presence of increasing concentrations of compounds was calculated based on the ratio of fluorescence at 665 nm to that at 620 nm. The IC50 value of each compound was calculated from fitting the data to the four-parameter logistic model by Dotmatics.

[2] = target: T2, GST-tagged GDP-loaded KRAS G12V (amino acids 1-169) (Homo sapiens, UniProt P01116, G12V); experiment: KRAS G12V probe displacement assay (TR-FRET); assay type: binding; details: displacement of biotinylated probe 2 from GDP-loaded KRAS G12V
T2 construct: GST-tagged GDP-loaded KRAS G12V (amino acids 1-169); made in house; host or cells: E. coli
T2 sequence (P01116 1-169 isoform P01116-2 G12V): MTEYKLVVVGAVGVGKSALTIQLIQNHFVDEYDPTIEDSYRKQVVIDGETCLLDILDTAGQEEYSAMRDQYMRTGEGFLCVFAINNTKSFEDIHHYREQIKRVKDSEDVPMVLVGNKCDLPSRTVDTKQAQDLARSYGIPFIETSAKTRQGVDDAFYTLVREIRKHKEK
Outline: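 Probe displacement read as TR-FRET (665/620 nm) with anti-GST-Tb and streptavidin-XL665, IC50 from four-parameter logistic fit. Compound preincubated 1 h, 24 °C, with E. coli-expressed KRAS 1-169: WT at 3 nM with 60 nM probe 1, G12V at 2 nM with 2.5 nM probe 2, pH 7.5.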

[3] = tested on: pERK1/2(THR202/TYR204) level, SW620 cell line; experiment: KRAS G12V pERK assay (HTRF); assay type: cell-based; details: Homo sapiens, SW-620; SW620 cells, 2 hrs compound treatment
Method: (§1) SW620 cell line was used in this study. Cells were maintained in RPMI 1640 supplemented with 10% fetal bovine serum (Thermo Fisher), 50 units/mL penicillin and streptomycin (Thermo Fisher) and kept at 37° C. in a humidified atmosphere of 5% CO2 in air. Cells were reinstated from frozen stocks that were laid down within 30 passages from the original cells purchased. 40000 cells per well were seeded into a 96-well plate and incubated overnight. Cells were treated with a 10-point dilution series. The final compound concentration is from 0 to 10 M. After 2 hrs compound treatment, cells were lysed, and the pERK1/2(THR202/TYR204) level in the cell lysates was detected by HTRF kit (Cisbio). In brief, a total of 16 μL of cell lysate from each well of a 96-well plate was transferred to a 384-well white assay plate. Lysate from each well was incubated with 2 μL of Eu3+− cryptate (donor) labeled anti-phospho-ERK1/2 and 2 μL of D2 (acceptor) labeled anti-phospho-ERK1/2 antibodies (Cisbio) overnight in dark at room temperature. When donor and acceptor are in close proximity, excitation of the donor with laser triggers a Fluorescence Resonance Energy Transfer (FRET) towards the acceptor, which in turn fluoresces at 655 nm wavelength. FRET signals were measured using a PHERAstar FSX reader (BMG Labtech). IC50 determination was performed by fitting the curve of percent inhibition versus the log of the inhibitor concentration using Dotmatics.

[4] = tested on: pERK1/2(THR202/TYR204) level, AsPC-1 cell line; experiment: KRAS G12D pERK assay (HTRF); assay type: cell-based; details: Homo sapiens, ASPC1; AsPC-1 cells, 2 h compound treatment
Method: as §1, with “AsPC-1” for “SW620”, “RPMI-1640” for “RPMI 1640”, “30000” for “40000”, “μM.” for “M.”, “h” for “hrs”

Row | SMILES | IC50 [1] | IC50 [2] | IC50 [3] | IC50 [4]
1 | N#CC1CCN(c2nc(OC[C@@]34CCCN3C[C@H](F)C4)nc3c(F)c(-c4ccc(F)c5sc(N)nc45)c(C(F)(F)F)cc23)CC1 [Example 68, 1-(7-(2-amino-7-fluorobenzo[d]thiazol-4-yl)-8-fluoro-2-(((2R,7aS)-2-fluorotetrahydro-1H-pyrrolizin-7a(5H)-yl)methoxy)-6-(trifluoromethyl)quinazolin-4-yl)piperidine-4-carbonitrile] | 6.6 nM | 0.77 nM | 76 nM | 686 nM
2 | Nc1nc2c(-c3c(C(F)(F)F)cc4c(NC5CC5)nc(OC[C@@]56CCCN5C[C@H](F)C6)nc4c3F)ccc(F)c2s1 [Example 1, 4-(4-(cyclopropylamino)-8-fluoro-2-(((2R,7aS)-2-fluorotetrahydro-1H-pyrrolizin-7a(5H)-yl)methoxy)-6-(trifluoromethyl)quinazolin-7-yl)-7-fluorobenzo[d]thiazol-2-amine] | 22 nM | 4.2 nM | 129 nM | 2460 nM
3 | C[C@@H]1C[C@@H](C#N)CCN1c1nc(OC[C@@]23CCCN2C[C@H](F)C3)nc2c(F)c(-c3ccc(F)c4sc(N)c(C#N)c34)c(C(F)(F)F)cc12 [Example 100, (2R,4S)-1-(7-(2-amino-3-cyano-7-fluorobenzo[b]thiophen-4-yl)-8-fluoro-2-(((2R,7aS)-2-fluorotetrahydro-1H-pyrrolizin-7a(5H)-yl)methoxy)-6-(trifluoromethyl)quinazolin-4-yl)-2-methylpiperidine-4-carbonitrile] | 0.34 nM | 0.74 nM | 18 nM | 56 nM
4 | Nc1nc2c(-c3c(C(F)(F)F)cc4c(N5CCC6(CC5)CNC(=O)O6)nc(OC[C@@]56CCCN5C[C@H](F)C6)nc4c3F)ccc(F)c2s1 [Example 86, 8-(7-(2-amino-7-fluorobenzo[d]thiazol-4-yl)-8-fluoro-2-(((2R,7aS)-2-fluorotetrahydro-1H-pyrrolizin-7a(5H)-yl)methoxy)-6-(trifluoromethyl)quinazolin-4-yl)-1-oxa-3,8-diazaspiro[4.5]decan-2-one] | 23 nM | 0.8 nM | 715 nM | 5440 nM
5 | C[C@@]1(O)CCCN(c2nc(OC[C@@]34CCCN3C[C@H](F)C4)nc3c(F)c(-c4cc(N)cc(Cl)c4C(F)(F)F)ncc23)C1 [Example 128, (R)-1-(7-(5-amino-3-chloro-2-(trifluoromethyl)phenyl)-8-fluoro-2-(((2R,7aS)-2-fluorotetrahydro-1H-pyrrolizin-7a(5H)-yl)methoxy)pyrido[4,3-d]pyrimidin-4-yl)-3-methylpiperidin-3-ol] | 1.2 nM | 2.6 nM | 84 nM | 76 nM
